Here are results for three compounds from US5928868A, “Three hybrid screening assay” (Massachusetts Institute of Technology, priority 1997, dated 1999).

Assay [1] deals with transcriptional activator-FKBP12 and Lex A DNA Binding Domain-Hormone Binding Domain of the Rat Glucocorticoid Receptor (UniProt P06536+P62942, C656G/F620S). Description: Yeast three hybrid screen, Lex A system (EGY48; lacZ and leu 2 reporters). Format: cell-based, Saccharomyces cerevisiae (EGY 48). As to conditions: 2% galactose. The source says:
A first vector containing the cDNA fragment encoding FKBP 12-transcriptional module was formed as follows. The cDNA encoding FKBP 12 was originally obtained from a human cDNA library prepared according to well known techniques (Current Protocols in Molecular Biology). The cDNA encoding the FKBP12 was amplified by PCR and subcloned into the EcoRI and XhoI sites of the pJG4-5 vector where the pJG4-5 vector already contains the transcriptional activator module. (Current Protocols in Molecular Biology). The resulting vector is called pJGFKBP.
A second vector encoding the hormone binding domain of rat glucocorticoid receptor (FIG. 4) and the Lex A binding protein was made as follows: A clone containing the full length rat glucocorticoid receptor with the C656G mutation was obtained according to Chakrabati et al. Journal of Biological Chemistry, (1991) vol 266, pp22075-22078. A fragment encoding amino acid residues 497-795 of the protein with the F620S mutation was generated by a standard two-step PCR reaction routinely used for the creation of point mutations. This fragment was flanked by restriction sites for MfeI and XhoI, and was subcloned into the EcoRI and XhoI sites of the pEG202 vector (Current Protocols in Molecular Biology) where the pEG202 vector contains the sequence which encodes for a protein which binds the bacterial Lex A operator. The resulting hybrid construct, designated pEGHDP encodes the second hybrid protein in the assay.
A third vector identified as pSH18-34 and containing the lacZ reporter gene downstream of a number of Lex A operators was made following standard techniques. (Current Protocols in Molecular Biology).
Saccharomyces cerevisiae (EGY 48) [Current Protocols on Molecular Biology], was transformed with the three vectors described above using standard lithium acetate transformation procedures. Positive transformants were selected by plating cells on complete minimal media yeast dropout plates containing 2% glucose, and lacking histidine, tryptophan and uracil. The transformed EGY48 yeast were then screened as described below.
(FIG. 6). […] This experiment was also performed on similar plates which were also leu^-. The leu 2 gene is used in EGY48 as a second reporter gene. Only yeast that grow in the absence of leucine contain a trimeric complex. These yeast grew well, with isolated colonies clearly visible at two days. Two control experiments were conducted by plating the transformed EGY48 strain onto complete minimal media Ura^-, His^-, Trp^- yeast dropout plates as in the aforementioned cases except the plates contained 2% glucose instead of 2% galactose. In the absence of galactose, the hybrid transcriptional activator-FKBP12 protein was not expressed since the gene encoding it is under the Gal1 promoter. […]

Assay [2] has as its target T1, Gal 4 activation domain-human FKBP12 and Gal4 DNA binding domain-hormone binding domain of rat glucocorticoid receptor (UniProt P06536+P62942, C656G/F620S). In kind it is cell-based, yeast strain Y190. As to conditions: FK506 1 to 10 μM with 1 μM dexamethasone-FK506, 30° C., 12-16 hours. How it is done:
The above yeast system has both a His- biosynthetic gene and a LacZ reporter gene as reporters for detection of three-hybrid interactions. We performed liquid β-galactosidase assay as follows. […] The culture were shaken vigorously at 30° C. for 12-16 hours. The yeast were harvested and the amount of β-galactosidase activity were quantified using established procedure (Current Protocol in Molecular Biology, Chapt. 13). […] This system is applied for screening a cDNA library to identify FKBPs that binds to FK506. The screening procedures are identical to those employed in Example 1.

In assay [3] the target is T1, Gal 4 activation domain-human FKBP12 and Gal4 DNA binding domain-hormone binding domain of rat glucocorticoid receptor. As to conditions: 10 μM FK506 with 1 μM dexamethasone-FK506, 30 mM 3-aminotriazole, three days.
Protocol: A three-hybrid assay using a second Gal4 DNA binding domain and activation domain as described by Fields et al. (U.S. Pat. No. 5,468,614) and by Durfee et al. (1993) Genes and Development vol 7, pg 555-569 was evaluated. The hormone binding domain of rat glucocorticoid receptor (residues 497-795) containing either a single or double mutations (C656G and F620S) was PCR amplified using primers tagged with restriction sites and subcloned into the vector pASII to encode a fusion protein between the Gal4 DNA binding domain and the hormone binding domain of rat glucocorticoid receptor to give a plasmid pASHBD. The coding sequence of human FKBP12 was PCR amplified and subcloned into the vector pACTII to include a fusion protein between Gal 4 activation domain and human FKBP12. The resultant vector is called pACTFKBP. The vectors pASHBD and pACTFKBP were transformed into the yeast strain Y190 using lithium acetate method and the transformed yeast were selected on SC (Leu^-, Trp^-).
For assay [4], the system named is FK506 binding proteins (FKBP). Particulars: cited from earlier work.
In assay [5] the test system is Jurkat cDNA library subcloned into pJG4-5. Particulars: 1 μM dexamethasone-FK506; growth inhibited by 10 μM FK506. How it is done: The yeast strain: EGY48 ura3 trp1 his3 Lex A operator-LEU 2; was transformed with pEGHDP and PSH18-34 and plated onto synthetic complete (SC) medium (His^-, Ura^-). The resultant EGY48 harboring pEGHBD and pSH18-34 was transformed with a Jurkat cDNA library subcloned into pJG4-5. […] Colonies were collected between days four and ten. All colonies were plated onto SC medium (His^-, Ura^-, Trp^-, Leu^-) containing galactose.

For another assay, the system named is glucocorticoid receptor. As to conditions: cited from earlier work.

Chain of transcriptional activator-FKBP12 and Lex A DNA Binding Domain-Hormone Binding Domain of the Rat Glucocorticoid Receptor (P62942 2-108): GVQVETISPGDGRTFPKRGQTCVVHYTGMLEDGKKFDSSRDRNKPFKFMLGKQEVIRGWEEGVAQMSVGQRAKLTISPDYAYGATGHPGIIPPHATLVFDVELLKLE
Chain of transcriptional activator-FKBP12 and Lex A DNA Binding Domain-Hormone Binding Domain of the Rat Glucocorticoid Receptor (P06536 497-795 F620S/C656G): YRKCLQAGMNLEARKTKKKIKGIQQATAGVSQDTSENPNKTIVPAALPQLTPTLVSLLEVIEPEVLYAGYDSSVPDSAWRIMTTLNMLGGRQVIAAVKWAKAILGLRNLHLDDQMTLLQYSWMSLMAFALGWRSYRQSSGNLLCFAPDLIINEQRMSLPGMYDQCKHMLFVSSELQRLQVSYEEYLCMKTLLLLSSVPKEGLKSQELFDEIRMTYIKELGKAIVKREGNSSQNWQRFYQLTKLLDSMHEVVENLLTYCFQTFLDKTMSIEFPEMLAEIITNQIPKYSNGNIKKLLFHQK
T1 sequence (P62942 2-108): as the sequence (P62942 2-108) above
T1 sequence (P06536 497-795 F620S/C656G): as the sequence (P06536 497-795 F620S/C656G) above

`C=CC[C@@H]1/C=C(\C)C[C@H](C)C[C@H](OC)[C@H]2O[C@@](O)(C(=O)C(=O)N3CCCC[C@H]3C(=O)O[C@H](/C(C)=C/[C@@H]3CC[C@@H](O)[C@H](OC)C3)[C@H](C)[C@@H](O)CC1=O)[C@H](C)C[C@@H]2OC` [FK506]: the “competitive inhibition of trimeric complex formation / Lac Z activation (yeast color)” value in assay [1] (10 μM FK506 with 1 μM dexamethasone-FK506 hybrid ligand) is on record as “all of the yeast remained white”. Further, the “β-galactosidase activity in competition with hybrid ligand” value in assay [2] was “decrease in a FK506 dose-dependent manner”. Besides, the “yeast colonies on selective plates in competition with hybrid ligand” value in assay [3] was “absent”. For the same compound, the “binding affinity to FKBPs when linked through the effector domain” value in assay [4] (FK506 linked through the effector domain) is “low nanomolar binding affinity”. For the same compound, the “binding affinities for FKBPs” value in assay [4] (free FK506) is on record as “in the nanomolar range”.
Consider dexamethasone-FK506, for which the “reporter gene activation (Lac Z, blue color on X-Gal)” value in assay [1] (1 μM hybrid ligand, Ura-, His-, Trp- plates with X-Gal) is “the yeast were blue at three days”. The “time at which light blue color signifying reporter gene activation began to arise” value in assay [1] (1 μM hybrid ligand, X-Gal plates) is listed as “approximately 36 hours”. The “growth in the absence of leucine (leu 2 reporter gene)” value in assay [1] (1 μM hybrid ligand, leu- plates) is “grew well”. Also, the “protein encoded by cDNA clones isolated with the hybrid ligand” value in assay [5] is reported as “found to encode human FKBP12”.
As to `C[C@@H]1C[C@H]2[C@@H]3CCC4=CC(=O)C=C[C@]4(C)[C@@]3(F)[C@@H](O)C[C@]2(C)[C@@]1(O)C(=O)CO` [dexamethasone], in the assay with glucocorticoid receptor, the “affinity for the glucocorticoid receptor” value is on record as “high affinity”.
